Test results reported in US10883993B2, “P53 biomarkers” (MULTIVIR INC., priority 2008, dated 2021).

Columns and labels:
SCCHN = conditions: monotherapy studies in SCCHN, ITT population, standard of care drugs; cited from earlier work
recurrent SCCHN = assay: Phase 3 pivotal trial T301 (ADVEXIN or methotrexate), tumor response and survival; type: in vivo, human
Source text: Favorable response to the therapy may comprise reduction in tumor size or burden, blocking of tumor growth, reduction in tumor-associated pain, reduction in tumor-associated pathology, reduction in tumor-associated symptoms, tumor non-progression, increased disease free interval, increased time to progression, induction of remission, reduction of metastasis, or increased patient survival. Particularly, “tumor response” may refer to tumor growth control (tumor growth control (TGC) defined by complete (CR) and partial (PR) reductions in size of >50% or Stable Disease (SD); TGC=CR+PR+SD) or reductions in tumor size of >10%.
Table 2 summarizes the results of these analyses and provides the corresponding data for patients treated with methotrexate in the pivotal Phase 3 T301 study.

SCCHN patients = assay: Safety data, Phase III SCCHN study (ADVEXIN vs methotrexate)
αv/β3 vascular integrin [1] = conditions: mice, without harming them; cited from earlier work
αv/β3 vascular integrin [2] = biological target: T1, αv/β3 vascular integrin (Homo sapiens, UniProt P05106+P06756); conditions: Phase II clinical trials in humans, without harmful side effects; cited from earlier work
T1 construct: the new blood vessels in tumors express a vascular integrin, designated αv/β3; host or cells: tumour blood vessels of human patients

[3] = T301, p53 gene status wild type
[4] = T301 methotrexate ITT population

T1 sequence (P06756 31-889 limits assumed): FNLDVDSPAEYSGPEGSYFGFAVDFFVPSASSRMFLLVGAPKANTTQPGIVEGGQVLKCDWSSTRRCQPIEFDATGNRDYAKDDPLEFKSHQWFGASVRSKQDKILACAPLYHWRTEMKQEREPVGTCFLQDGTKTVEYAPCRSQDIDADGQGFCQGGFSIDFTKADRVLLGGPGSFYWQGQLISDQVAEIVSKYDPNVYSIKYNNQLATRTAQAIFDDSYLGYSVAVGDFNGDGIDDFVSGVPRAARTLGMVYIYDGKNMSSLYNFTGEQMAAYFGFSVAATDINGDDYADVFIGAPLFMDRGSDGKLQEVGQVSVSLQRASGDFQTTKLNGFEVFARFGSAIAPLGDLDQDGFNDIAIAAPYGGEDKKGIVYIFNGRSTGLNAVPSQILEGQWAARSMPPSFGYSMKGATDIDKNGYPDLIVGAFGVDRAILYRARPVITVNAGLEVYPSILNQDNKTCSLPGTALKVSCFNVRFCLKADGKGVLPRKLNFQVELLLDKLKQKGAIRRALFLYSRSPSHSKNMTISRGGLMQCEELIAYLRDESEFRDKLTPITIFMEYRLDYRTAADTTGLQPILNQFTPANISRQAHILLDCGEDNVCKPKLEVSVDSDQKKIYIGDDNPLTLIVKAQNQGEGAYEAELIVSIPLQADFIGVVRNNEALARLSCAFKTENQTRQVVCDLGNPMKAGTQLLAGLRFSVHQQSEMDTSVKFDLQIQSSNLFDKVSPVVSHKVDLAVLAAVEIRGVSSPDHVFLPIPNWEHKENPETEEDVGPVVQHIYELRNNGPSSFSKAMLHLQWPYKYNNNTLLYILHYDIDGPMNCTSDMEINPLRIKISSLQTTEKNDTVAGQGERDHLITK
T1 sequence (P06756 891-1048 limits assumed): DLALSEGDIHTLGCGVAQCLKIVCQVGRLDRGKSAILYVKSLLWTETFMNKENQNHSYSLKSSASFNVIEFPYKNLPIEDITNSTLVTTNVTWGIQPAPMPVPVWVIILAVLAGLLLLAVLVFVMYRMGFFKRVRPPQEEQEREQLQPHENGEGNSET
T1 sequence (P05106 27-788): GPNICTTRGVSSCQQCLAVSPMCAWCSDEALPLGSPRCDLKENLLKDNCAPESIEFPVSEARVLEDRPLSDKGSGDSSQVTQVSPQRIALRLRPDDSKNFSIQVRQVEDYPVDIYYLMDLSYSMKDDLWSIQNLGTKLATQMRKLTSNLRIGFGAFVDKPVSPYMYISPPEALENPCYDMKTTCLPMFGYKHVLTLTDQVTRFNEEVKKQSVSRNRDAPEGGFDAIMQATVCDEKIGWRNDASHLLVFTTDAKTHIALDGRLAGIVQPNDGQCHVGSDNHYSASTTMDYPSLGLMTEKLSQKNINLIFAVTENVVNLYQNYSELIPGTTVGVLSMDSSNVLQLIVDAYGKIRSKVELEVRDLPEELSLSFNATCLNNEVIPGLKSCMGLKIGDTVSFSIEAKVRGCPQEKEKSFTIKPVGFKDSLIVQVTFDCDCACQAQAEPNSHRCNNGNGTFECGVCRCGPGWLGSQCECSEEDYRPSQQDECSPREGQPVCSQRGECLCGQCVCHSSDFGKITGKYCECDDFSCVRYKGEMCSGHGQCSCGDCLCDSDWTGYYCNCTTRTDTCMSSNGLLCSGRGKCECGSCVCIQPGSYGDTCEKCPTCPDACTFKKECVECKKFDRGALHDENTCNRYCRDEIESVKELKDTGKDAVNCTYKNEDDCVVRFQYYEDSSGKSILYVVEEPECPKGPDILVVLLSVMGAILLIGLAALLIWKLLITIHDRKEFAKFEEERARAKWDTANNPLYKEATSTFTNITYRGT

In the case of `CC(=O)O[C@@]12CO[C@@H]1C[C@H](O)[C@@]1(C)C(=O)[C@H](O)C3=C(C)[C@@H](OC(=O)[C@H](O)[C@@H](NC(=O)OC(C)(C)C)c4ccccc4)C[C@@](O)([C@@H](OC(=O)c4ccccc4)[C@H]21)C3(C)C` [Docetaxel], the “Median Overall Survival” value (SCCHN) is listed as 6.6 months.

In the case of `C#Cc1cccc(Nc2ncnc3cc(OCCOC)c(OCCOC)cc23)c1` [Erlotinib], the “Median Overall Survival” value (SCCHN) is listed as 5.8 months.

For `CN(Cc1cnc2nc(N)nc(N)c2n1)c1ccc(C(=O)N[C@@H](CCC(=O)O)C(=O)O)cc1` [Methotrexate], the “Median survival, patients with p53 profiles favorable for ADVEXIN efficacy” value (recurrent SCCHN; T301) was 4.3 months, the “Median survival, patients with p53 profiles unfavorable for ADVEXIN efficacy” value (recurrent SCCHN; T301) was 6.0 months and the “Tumor Growth Control, patients with TGC / patients” value (recurrent SCCHN; T301, p53 gene status mutated) was 13/15. For the same molecule, the “Tumor Growth Control, percentage of patients” value (recurrent SCCHN; T301, p53 gene status mutated) was 87%, the “Tumor Growth Control, patients with TGC / patients” value (recurrent SCCHN; [3]) was 11/20 and the “Tumor Growth Control, percentage of patients” value (recurrent SCCHN; [3]) was 55%. The “Median Survival, TGC Non-Responders” value (recurrent SCCHN; T301 ITT population) was 3.8 months, the “Median Survival, TGC Responders” value (recurrent SCCHN; T301 ITT population) was 7.5 months and the “% Tumor Growth Control” value (recurrent SCCHN; T301 ITT population, TGC = CR+PR+SD) was 53.3%. The “% Tumor Response (≥10% tumor reduction)” value (recurrent SCCHN; [4]) was 18.3%, the “% Tumor Response (≥50% tumor reduction)” value (recurrent SCCHN; [4]) was 11.7% and the “Median Survival, Non-Responders (≥10% tumor reduction criterion)” value (recurrent SCCHN; [4]) was 4.3 months. The “Median Survival, Non-Responders (≥50% tumor reduction criterion)” value (recurrent SCCHN; [4]) was 4.6 months, the “Median Survival, Responders (≥10% tumor reduction)” value (recurrent SCCHN; [4]) was 11.9 months and the “Median Survival, Responders (≥50% tumor reduction)” value (recurrent SCCHN; [4]) was 14.4 months. For the same molecule, the “Grade 3 or 4 laboratory event: leukopenia” value (SCCHN patients; Phase III SCCHN study) was 12.1%, the “Grade 3 or 4 laboratory event: lymphopenia” value (SCCHN patients; Phase III SCCHN study) was 25.6% and the “Grade 3 or 4 laboratory event: neutropenia” value (SCCHN patients; Phase III SCCHN study) was 12.1%. The “Incidence of Grade 3 or 4 laboratory events” value (SCCHN patients; Phase III SCCHN study) was 39.5%, the “Body weight loss over time” value (SCCHN patients; Phase III SCCHN study, compared with ADVEXIN patients) was “more body weight loss” and the “Deaths attributed to treatment” value (SCCHN patients; Phase III recurrent SCCHN study, due to leukopenia) was “one death”. The “Incidences of stomatitis, nausea, pneumonia, paresthesia, leucopenia and neutropenia” value (SCCHN patients; Phase III study, relative to ADVEXIN) was “higher incidences” and the “Median Overall Survival” value (SCCHN) was 4.2-5.6 months.

For `CC(=O)O[C@H]1C(=O)[C@@]2(C)[C@H]([C@H](OC(=O)c3ccccc3)[C@]3(O)C[C@H](OC(=O)[C@H](O)[C@@H](NC(=O)c4ccccc4)c4ccccc4)C(C)=C1C3(C)C)[C@]1(OC(C)=O)CO[C@@H]1C[C@@H]2O` [Paclitaxel], the “Median Overall Survival” value (SCCHN) is given as 4.4 months.

In the case of Carboplatin/5FU, the “Median Overall Survival” value (SCCHN) is given as 5.0 months.

In the case of Cisplatin/5FU, the “Median Overall Survival” value (SCCHN) is listed as 5.6-6.4 months.

B1: Vitaxin®: a monoclonal antibody directed against the αv/β3 vascular integrin (antibody, chains of the INN, looked up, V domains shown)
VH: QVQLVESGGGVVQPGRSLRLSCAASGFTFSSYDMSWVRQAPGKGLEWVAKVSSGGGSTYYLDTVQGRFTISRDNSKNTLYLQMNSLRAEDTAVYYCARHLHGSFASWGQGTTVTVSS
VL: EIVLTQSPATLSLSPGERATLSCQASQSISNFLHWYQQRPGQAPRLLIRYRSQSISGIPARFSGSGSGTDFTLTISSLEPEDFAVYYCQQSGSWPLTFGGGTKVEIK
In the case of B1, the Effect on tumors (αv/β3 vascular integrin [1]) is listed as “shrinks tumors” and the “Effect on solid tumors” value (αv/β3 vascular integrin [2]) is listed as “some promise in shrinking solid tumors”.
